Assay results as given in the NIST ThermoML archive (doi:10.1021/je060271a).
± gives the expanded uncertainty stated by the source.

Details: 303.15 K, Liquid, Vibrating tube method

A mass density (18990 kPa) of 1022.6 ± 1.2 kg/m3, a mass density (19023 kPa) of 1022.8 ± 1.2 kg/m3 and a mass density (19056 kPa) of 1022.6 ± 1.2 kg/m3 were found for `CCCCC(=O)OCC(COC(=O)CCCC)(COC(=O)CCCC)COC(=O)CCCC` [pentaerythritol tetrapentanoate] in this work. For the same molecule, the mass density (19094 kPa) was 1022.8 ± 1.2 kg/m3, the mass density (19127 kPa) was 1022.7 ± 1.2 kg/m3 and the mass density (19159 kPa) was 1022.9 ± 1.2 kg/m3. For the same molecule, the mass density (19198 kPa) was 1022.9 ± 1.2 kg/m3, the mass density (19232 kPa) was 1022.8 ± 1.2 kg/m3 and the mass density (19265 kPa) was 1022.8 ± 1.2 kg/m3. For the same molecule, the mass density (19304 kPa) was 1022.8 ± 1.2 kg/m3, the mass density (19338 kPa) was 1022.9 ± 1.2 kg/m3 and the mass density (19372 kPa) was 1023 ± 1.2 kg/m3. For the same molecule, the mass density (19412 kPa) was 1022.9 ± 1.2 kg/m3, the mass density (19446 kPa) was 1022.9 ± 1.2 kg/m3 and the mass density (19480 kPa) was 1023 ± 1.2 kg/m3. For the same molecule, the mass density (19515 kPa) was 1023 ± 1.2 kg/m3, the mass density (19556 kPa) was 1023 ± 1.2 kg/m3 and the mass density (19590 kPa) was 1023.1 ± 1.2 kg/m3. The mass density (19630 kPa) was 1023 ± 1.2 kg/m3, the mass density (19702 kPa) was 1023.1 ± 1.2 kg/m3 and the mass density (19736 kPa) was 1023.1 ± 1.2 kg/m3. The mass density (19778 kPa) was 1023.2 ± 1.2 kg/m3, the mass density (19813 kPa) was 1023.2 ± 1.2 kg/m3 and the mass density (19856 kPa) was 1023.2 ± 1.2 kg/m3. It also gave a mass density (19893 kPa) of 1023.1 ± 1.2 kg/m3, a mass density (19930 kPa) of 1023.2 ± 1.2 kg/m3 and a mass density (19968 kPa) of 1023.2 ± 1.2 kg/m3. It also gave a mass density (20013 kPa) of 1023.3 ± 1.2 kg/m3, a mass density (20051 kPa) of 1023.4 ± 1.2 kg/m3 and a mass density (20090 kPa) of 1023.2 ± 1.2 kg/m3. The mass density (20134 kPa) was 1023.3 ± 1.2 kg/m3, the mass density (20161 kPa) was 1023.4 ± 1.2 kg/m3 and the mass density (20186 kPa) was 1023.3 ± 1.2 kg/m3. The mass density (20215 kPa) was 1023.3 ± 1.2 kg/m3, the mass density (20240 kPa) was 1023.4 ± 1.2 kg/m3 and the mass density (20265 kPa) was 1023.5 ± 1.2 kg/m3. The mass density (20290 kPa) was 1023.6 ± 1.2 kg/m3, the mass density (20321 kPa) was 1023.4 ± 1.2 kg/m3 and the mass density (20346 kPa) was 1023.4 ± 1.2 kg/m3. It also gave a mass density (20370 kPa) of 1023.5 ± 1.2 kg/m3, a mass density (20396 kPa) of 1023.5 ± 1.2 kg/m3 and a mass density (20425 kPa) of 1023.6 ± 1.2 kg/m3. It also gave a mass density (20451 kPa) of 1023.5 ± 1.2 kg/m3, a mass density (20481 kPa) of 1023.6 ± 1.2 kg/m3 and a mass density (20506 kPa) of 1023.5 ± 1.2 kg/m3. It also gave a mass density (20532 kPa) of 1023.6 ± 1.2 kg/m3, a mass density (20561 kPa) of 1023.6 ± 1.2 kg/m3 and a mass density (20587 kPa) of 1023.6 ± 1.2 kg/m3. The mass density (20613 kPa) was 1023.7 ± 1.2 kg/m3, the mass density (20644 kPa) was 1023.6 ± 1.2 kg/m3 and the mass density (20671 kPa) was 1023.6 ± 1.2 kg/m3. The mass density (20697 kPa) was 1023.6 ± 1.2 kg/m3, the mass density (20723 kPa) was 1023.7 ± 1.2 kg/m3 and the mass density (20754 kPa) was 1023.6 ± 1.2 kg/m3. For the same molecule, the mass density (20780 kPa) was 1023.7 ± 1.2 kg/m3, the mass density (20806 kPa) was 1023.8 ± 1.2 kg/m3 and the mass density (20837 kPa) was 1023.8 ± 1.2 kg/m3. It also gave a mass density (20864 kPa) of 1023.9 ± 1.2 kg/m3, a mass density (20890 kPa) of 1023.7 ± 1.2 kg/m3 and a mass density (20920 kPa) of 1023.8 ± 1.2 kg/m3. The mass density (20947 kPa) was 1023.7 ± 1.2 kg/m3, the mass density (20974 kPa) was 1023.8 ± 1.2 kg/m3 and the mass density (21007 kPa) was 1023.7 ± 1.2 kg/m3. For the same molecule, the mass density (21030 kPa) was 1023.9 ± 1.2 kg/m3, the mass density (21062 kPa) was 1023.9 ± 1.2 kg/m3 and the mass density (21089 kPa) was 1023.8 ± 1.2 kg/m3. It also gave a mass density (21122 kPa) of 1023.8 ± 1.2 kg/m3, a mass density (21149 kPa) of 1023.9 ± 1.2 kg/m3 and a mass density (21176 kPa) of 1024 ± 1.2 kg/m3. The mass density (21208 kPa) was 1024 ± 1.2 kg/m3, the mass density (21236 kPa) was 1024 ± 1.2 kg/m3 and the mass density (21263 kPa) was 1023.8 ± 1.2 kg/m3. The mass density (21291 kPa) was 1024 ± 1.2 kg/m3, the mass density (21324 kPa) was 1024.1 ± 1.2 kg/m3 and the mass density (21351 kPa) was 1024.1 ± 1.2 kg/m3. For the same molecule, the mass density (21384 kPa) was 1024.1 ± 1.2 kg/m3, the mass density (21412 kPa) was 1024 ± 1.2 kg/m3 and the mass density (21440 kPa) was 1024.1 ± 1.2 kg/m3. For the same molecule, the mass density (21472 kPa) was 1024.1 ± 1.2 kg/m3, the mass density (21500 kPa) was 1024.2 ± 1.2 kg/m3 and the mass density (21528 kPa) was 1024.1 ± 1.2 kg/m3. For the same molecule, the mass density (21557 kPa) was 1024.1 ± 1.2 kg/m3, the mass density (21593 kPa) was 1024.2 ± 1.2 kg/m3 and the mass density (21622 kPa) was 1024.2 ± 1.2 kg/m3. The mass density (21658 kPa) was 1024.3 ± 1.2 kg/m3, the mass density (21688 kPa) was 1024.2 ± 1.2 kg/m3 and the mass density (21718 kPa) was 1024.4 ± 1.2 kg/m3. The mass density (21754 kPa) was 1024.3 ± 1.2 kg/m3, the mass density (21784 kPa) was 1024.2 ± 1.2 kg/m3 and the mass density (21814 kPa) was 1024.3 ± 1.2 kg/m3. It also gave a mass density (21844 kPa) of 1024.4 ± 1.2 kg/m3, a mass density (21881 kPa) of 1024.2 ± 1.2 kg/m3 and a mass density (21911 kPa) of 1024.4 ± 1.2 kg/m3. It also gave a mass density (21942 kPa) of 1024.4 ± 1.2 kg/m3, a mass density (21979 kPa) of 1024.4 ± 1.2 kg/m3 and a mass density (22009 kPa) of 1024.5 ± 1.2 kg/m3. For the same molecule, the mass density (22046 kPa) was 1024.4 ± 1.2 kg/m3, the mass density (22077 kPa) was 1024.5 ± 1.2 kg/m3 and the mass density (22109 kPa) was 1024.4 ± 1.2 kg/m3. It also gave a mass density (22140 kPa) of 1024.5 ± 1.2 kg/m3, a mass density (22178 kPa) of 1024.5 ± 1.2 kg/m3 and a mass density (22210 kPa) of 1024.6 ± 1.2 kg/m3. It also gave a mass density (22242 kPa) of 1024.6 ± 1.2 kg/m3, a mass density (22279 kPa) of 1024.6 ± 1.2 kg/m3 and a mass density (22311 kPa) of 1024.6 ± 1.2 kg/m3. For the same molecule, the mass density (22343 kPa) was 1024.7 ± 1.2 kg/m3, the mass density (22375 kPa) was 1024.6 ± 1.2 kg/m3 and the mass density (22414 kPa) was 1024.6 ± 1.2 kg/m3. The mass density (22446 kPa) was 1024.6 ± 1.2 kg/m3, the mass density (22478 kPa) was 1024.6 ± 1.2 kg/m3 and the mass density (22517 kPa) was 1024.7 ± 1.2 kg/m3. It also gave a mass density (22550 kPa) of 1024.8 ± 1.2 kg/m3, a mass density (22583 kPa) of 1024.7 ± 1.2 kg/m3 and a mass density (22622 kPa) of 1024.8 ± 1.2 kg/m3. For the same molecule, the mass density (22656 kPa) was 1024.7 ± 1.2 kg/m3, the mass density (22688 kPa) was 1024.7 ± 1.2 kg/m3 and the mass density (22722 kPa) was 1024.8 ± 1.2 kg/m3. For the same molecule, the mass density (22761 kPa) was 1024.8 ± 1.2 kg/m3, the mass density (22794 kPa) was 1024.9 ± 1.2 kg/m3 and the mass density (22828 kPa) was 1024.9 ± 1.2 kg/m3. The mass density (22868 kPa) was 1024.9 ± 1.2 kg/m3, the mass density (22901 kPa) was 1024.9 ± 1.2 kg/m3 and the mass density (22942 kPa) was 1024.9 ± 1.2 kg/m3. The mass density (22975 kPa) was 1024.9 ± 1.2 kg/m3, the mass density (23009 kPa) was 1024.9 ± 1.2 kg/m3 and the mass density (23043 kPa) was 1025.1 ± 1.2 kg/m3. The mass density (23084 kPa) was 1025 ± 1.2 kg/m3, the mass density (23119 kPa) was 1025.1 ± 1.2 kg/m3 and the mass density (23154 kPa) was 1025 ± 1.2 kg/m3. It also gave a mass density (23195 kPa) of 1025 ± 1.2 kg/m3, a mass density (23230 kPa) of 1025.1 ± 1.2 kg/m3 and a mass density (23265 kPa) of 1025.2 ± 1.2 kg/m3. The mass density (23307 kPa) was 1025.2 ± 1.2 kg/m3, the mass density (23342 kPa) was 1025.2 ± 1.2 kg/m3 and the mass density (23378 kPa) was 1025.2 ± 1.2 kg/m3. For the same molecule, the mass density (23413 kPa) was 1025.2 ± 1.2 kg/m3, the mass density (23456 kPa) was 1025.2 ± 1.2 kg/m3 and the mass density (23492 kPa) was 1025.3 ± 1.2 kg/m3. It also gave a mass density (23534 kPa) of 1025.2 ± 1.2 kg/m3, a mass density (23572 kPa) of 1025.1 ± 1.2 kg/m3 and a mass density (23609 kPa) of 1025.3 ± 1.2 kg/m3. For the same molecule, the mass density (23646 kPa) was 1025.4 ± 1.2 kg/m3, the mass density (23680 kPa) was 1025.3 ± 1.2 kg/m3 and the mass density (23726 kPa) was 1025.4 ± 1.2 kg/m3. It also gave a mass density (23761 kPa) of 1025.5 ± 1.2 kg/m3, a mass density (23798 kPa) of 1025.6 ± 1.2 kg/m3 and a mass density (23843 kPa) of 1025.5 ± 1.2 kg/m3. For the same molecule, the mass density (23878 kPa) was 1025.4 ± 1.2 kg/m3, the mass density (23926 kPa) was 1025.5 ± 1.2 kg/m3 and the mass density (23961 kPa) was 1025.6 ± 1.2 kg/m3. For the same molecule, the mass density (23996 kPa) was 1025.5 ± 1.2 kg/m3, the mass density (24033 kPa) was 1025.7 ± 1.2 kg/m3 and the mass density (24084 kPa) was 1025.5 ± 1.2 kg/m3. For the same molecule, the mass density (24123 kPa) was 1025.6 ± 1.2 kg/m3, the mass density (24162 kPa) was 1025.7 ± 1.2 kg/m3 and the mass density (24202 kPa) was 1025.6 ± 1.2 kg/m3. The mass density (24250 kPa) was 1025.7 ± 1.2 kg/m3, the mass density (24285 kPa) was 1025.8 ± 1.2 kg/m3 and the mass density (24316 kPa) was 1025.7 ± 1.2 kg/m3. It also gave a mass density (24353 kPa) of 1025.8 ± 1.2 kg/m3 and a mass density (24383 kPa) of 1025.8 ± 1.2 kg/m3.
